# Data as given in patent US9125913B2, “Bcl-2-selective apoptosis-inducing agents for the treatment of cancer and immune diseases” (AbbVie Inc., priority 2008, dated 2015).
# Tested on: GST-Bcl-2
# Assay: TR-FRET binding assay, Bcl-2
# Conditions: TR-FRET Ki values
# Summary of the method: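 Ki values come from Wang's competitive-binding equation applied to TR-FRET signal (excitation 340/35 nm; emission 520/525 nm F-Bak peptide, 495/510 nm Tb antibody). Protein, probe and antibody incubated with compound 3 h at room temperature; dilution series began at 50 μM as 2× stock in 10% DMSO.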
row,Structure (SMILES),Binding selectivity ratio (Bcl-XL Ki/Bcl-2 Ki)
1,"CC1(C)CCC(CN2CCN(c3ccc(C(=O)NS(=O)(=O)c4ccc(NC[C@H]5CCCO5)c([N+](=O)[O-])c4)c(Oc4ccc5[nH]ccc5c4)c3)CC2)=C(c2ccc(Cl)cc2)C1 [EXAMPLE 370, 4-(4-{[2-(4-chlorophenyl)-4,4-dimethylcyclohex-1-en-1-yl]methyl}piperazin-1-yl)-2-(1H-indol-5-yloxy)-N-[(3-nitro-4-{[(2R)-tetrahydrofuran-2-ylmethyl]amino}phenyl)sulfonyl]benzamide]",>729.9
2,"CC(C)[C@H](CO)Nc1ccc(S(=O)(=O)NC(=O)c2ccc(N3CCN(CC4=C(c5ccc(Cl)cc5)CC(C)(C)CC4)CC3)cc2Oc2ccc3[nH]ccc3c2)cc1[N+](=O)[O-] [EXAMPLE 371, 4-(4-{[2-(4-chlorophenyl)-4,4-dimethylcyclohex-1-en-1-yl]methyl}piperazin-1-yl)-N-[(4-{[(1R)-1-(hydroxymethyl)-2-methylpropyl]amino}-3-nitrophenyl)sulfonyl]-2-(1H-indol-5-yloxy)benzamide]",>78.8
3,"CC1(C)CCC(CN2CCN(c3ccc(C(=O)NS(=O)(=O)c4ccc(NCCCN5CCCC5=O)c([N+](=O)[O-])c4)c(Oc4ccc5[nH]ccc5c4)c3)CC2)=C(c2ccc(Cl)cc2)C1 [EXAMPLE 374, 4-(4-{[2-(4-chlorophenyl)-4,4-dimethylcyclohex-1-en-1-yl]methyl}piperazin-1-yl)-2-(1H-indol-5-yloxy)-N-[(3-nitro-4-{[3-(2-oxopyrrolidin-1-yl)propyl]amino}phenyl)sulfonyl]benzamide]",>291.2
4,"CC1(C)CCC(CN2CCN(c3ccc(C(=O)NS(=O)(=O)c4ccc(Nc5ccc(O)cc5)c([N+](=O)[O-])c4)c(Oc4ccc5[nH]ccc5c4)c3)CC2)=C(c2ccc(Cl)cc2)C1 [EXAMPLE 375, 4-(4-{[2-(4-chlorophenyl)-4,4-dimethylcyclohex-1-en-1-yl]methyl}piperazin-1-yl)-N-({4-[(4-hydroxyphenyl)amino]-3-nitrophenyl}sulfonyl)-2-(1H-indol-5-yloxy)benzamide]",>58.6
5,"CC1(C)CCC(CN2CCN(c3ccc(C(=O)NS(=O)(=O)c4ccc(NCCc5ccc(S(N)(=O)=O)cc5)c([N+](=O)[O-])c4)c(Oc4ccc5[nH]ccc5c4)c3)CC2)=C(c2ccc(Cl)cc2)C1 [EXAMPLE 376, N-{[4-({2-[4-(aminosulfonyl)phenyl]ethyl}amino)-3-nitrophenyl]sulfonyl}-4-(4-{[2-(4-chlorophenyl)-4,4-dimethylcyclohex-1-en-1-yl]methyl}piperazin-1-yl)-2-(1H-indol-5-yloxy)benzamide]",>29.5
6,"CC1(C)CCC(CN2CCN(c3ccc(C(=O)NS(=O)(=O)c4ccc(NCCCn5ccnc5)c([N+](=O)[O-])c4)c(Oc4ccc5[nH]ccc5c4)c3)CC2)=C(c2ccc(Cl)cc2)C1 [EXAMPLE 377, 4-(4-{[2-(4-chlorophenyl)-4,4-dimethylcyclohex-1-en-1-yl]methyl}piperazin-1-yl)-N-[(4-{[3-(1H-imidazol-1-yl)propyl]amino}-3-nitrophenyl)sulfonyl]-2-(1H-indol-5-yloxy)benzamide]",2317.4
7,"C[C@H](Nc1ccc(S(=O)(=O)NC(=O)c2ccc(N3CCN(CC4=C(c5ccc(Cl)cc5)CC(C)(C)CC4)CC3)cc2Oc2ccc3[nH]ccc3c2)cc1[N+](=O)[O-])c1ccccc1 [EXAMPLE 378, 4-(4-{[2-(4-chlorophenyl)-4,4-dimethylcyclohex-1-en-1-yl]methyl}piperazin-1-yl)-2-(1H-indol-5-yloxy)-N-[(3-nitro-4-{[(1S)-1-phenylethyl]amino}phenyl)sulfonyl]benzamide]",>10.5
8,"CC1(C)CCC(CN2CCN(c3ccc(C(=O)NS(=O)(=O)c4cc(F)c(NCC5CCOCC5)cc4Cl)c(Oc4ccc5[nH]ccc5c4)c3)CC2)=C(c2ccc(Cl)cc2)C1 [EXAMPLE 379, N-({2-chloro-5-fluoro-4-[(tetrahydro-2H-pyran-4-ylmethyl)amino]phenyl}sulfonyl)-4-(4-{[2-(4-chlorophenyl)-4,4-dimethylcyclohex-1-en-1-yl]methyl}piperazin-1-yl)-2-(1H-indol-5-yloxy)benzamide]",>2.6
9,"COCCOCCSc1ccc(S(=O)(=O)NC(=O)c2ccc(N3CCN(CC4=C(c5ccc(Cl)cc5)CC(C)(C)CC4)CC3)cc2Oc2ccc3[nH]ccc3c2)cc1[N+](=O)[O-] [EXAMPLE 380, 4-(4-{[2-(4-chlorophenyl)-4,4-dimethylcyclohex-1-en-1-yl]methyl}piperazin-1-yl)-2-(1H-indol-5-yloxy)-N-[(4-{[2-(2-methoxyethoxy)ethyl]thio}-3-nitrophenyl)sulfonyl]benzamide]",2107.3
10,"COCCOCCSc1ccc(S(=O)(=O)NC(=O)c2ccc(N3CCN(CC4=C(c5ccc(Cl)cc5)CC(C)(C)CC4)CC3)cc2Oc2cccc3[nH]ccc23)cc1[N+](=O)[O-] [EXAMPLE 381, 4-(4-{[2-(4-chlorophenyl)-4,4-dimethylcyclohex-1-en-1-yl]methyl}piperazin-1-yl)-2-(1H-indol-4-yloxy)-N-[(4-{[2-(2-methoxyethoxy)ethyl]thio}-3-nitrophenyl)sulfonyl]benzamide]",448.3
11,"CC1(C)CCC(CN2CCN(c3ccc(C(=O)NS(=O)(=O)c4ccc(S(C)(=O)=O)cc4)c(Oc4ccc5[nH]ccc5c4)c3)CC2)=C(c2ccc(Cl)cc2)C1 [EXAMPLE 382, 4-(4-{[2-(4-chlorophenyl)-4,4-dimethylcyclohex-1-en-1-yl]methyl}piperazin-1-yl)-2-(1H-indol-5-yloxy)-N-{[4-(methylsulfonyl)phenyl]sulfonyl}benzamide]",>573.9
12,"CC1(C)CCC(CN2CCN(c3ccc(C(=O)NS(=O)(=O)c4ccc(S(C)(=O)=O)cc4)c(Oc4cccc5[nH]ccc45)c3)CC2)=C(c2ccc(Cl)cc2)C1 [EXAMPLE 383, 4-(4-{[2-(4-chlorophenyl)-4,4-dimethylcyclohex-1-en-1-yl]methyl}piperazin-1-yl)-2-(1H-indol-4-yloxy)-N-{[4-(methylsulfonyl)phenyl]sulfonyl}benzamide]",>304.1
13,"CC1(C)CCC(CN2CCN(c3ccc(C(=O)NS(=O)(=O)c4ccc(OCC5CCOC(C)(C)C5)c([N+](=O)[O-])c4)c(Oc4ccc5[nH]ccc5c4)c3)CC2)=C(c2ccc(Cl)cc2)C1 (centres unmarked) [EXAMPLE 384, 4-(4-{[2-(4-chlorophenyl)-4,4-dimethylcyclohex-1-en-1-yl]methyl}piperazin-1-yl)-N-({4-[(2,2-dimethyltetrahydro-2H-pyran-4-yl)methoxy]-3-nitrophenyl}sulfonyl)-2-(1H-indol-5-yloxy)benzamide]",>8684.2
14,"CC1(C)CCC(CN2CCN(c3ccc(C(=O)NS(=O)(=O)c4cnc(OCC5(F)CCOCC5)c(C#N)c4)c(Oc4ccc5[nH]ccc5c4)c3)CC2)=C(c2ccc(Cl)cc2)C1 [EXAMPLE 385, 4-(4-{[2-(4-chlorophenyl)-4,4-dimethylcyclohex-1-en-1-yl]methyl}piperazin-1-yl)-N-({5-cyano-6-[(4-fluorotetrahydro-2H-pyran-4-yl)methoxy]pyridin-3-yl}sulfonyl)-2-(1H-indol-5-yloxy)benzamide]",2096.5
15,"CC1(C)CCC(CN2CCN(c3ccc(C(=O)NS(=O)(=O)c4cnc(OCC5CCOCC5)c(C#N)c4)c(Oc4cccc5[nH]ccc45)c3)CC2)=C(c2ccc(Cl)cc2)C1 [EXAMPLE 386, 4-(4-{[2-(4-chlorophenyl)-4,4-dimethylcyclohex-1-en-1-yl]methyl}piperazin-1-yl)-N-{[5-cyano-6-(tetrahydro-2H-pyran-4-ylmethoxy)pyridin-3-yl]sulfonyl}-2-(1H-indol-4-yloxy)benzamide]",494.5
16,"CC1(C)CCC(CN2CCN(c3ccc(C(=O)NS(=O)(=O)c4cnc(OCC5CCOCC5)c(Cl)c4)c(Oc4cccc5[nH]ccc45)c3)CC2)=C(c2ccc(Cl)cc2)C1 [EXAMPLE 387, 4-(4-{[2-(4-chlorophenyl)-4,4-dimethylcyclohex-1-en-1-yl]methyl}piperazin-1-yl)-N-{[5-chloro-6-(tetrahydro-2H-pyran-4-ylmethoxy)pyridin-3-yl]sulfonyl}-2-(1H-indol-4-yloxy)benzamide]",1723.4
17,"CC1(C)CCC(CN2CCN(c3ccc(C(=O)NS(=O)(=O)c4cnc(OCCN5CCOCC5)c(C#N)c4)c(Oc4ccc5[nH]ccc5c4)c3)CC2)=C(c2ccc(Cl)cc2)C1 [EXAMPLE 388, 4-(4-{[2-(4-chlorophenyl)-4,4-dimethylcyclohex-1-en-1-yl]methyl}piperazin-1-yl)-N-{[5-cyano-6-(2-morpholin-4-ylethoxy)pyridin-3-yl]sulfonyl}-2-(1H-indol-5-yloxy)benzamide]",185.1
18,"CC1(C)CCC(CN2CCN(c3ccc(C(=O)NS(=O)(=O)c4ccc(OC5CCN(C6CCOCC6)CC5)c([N+](=O)[O-])c4)c(Oc4ccc5[nH]ccc5c4)c3)CC2)=C(c2ccc(Cl)cc2)C1 [EXAMPLE 389, 4-(4-{[2-(4-chlorophenyl)-4,4-dimethylcyclohex-1-en-1-yl]methyl}piperazin-1-yl)-2-(1H-indol-5-yloxy)-N-({3-nitro-4-[(1-tetrahydro-2H-pyran-4-ylpiperidin-4-yl)oxy]phenyl}sulfonyl)benzamide]",685.5
19,"CC1(C)CCC(CN2CCN(c3ccc(C(=O)NS(=O)(=O)c4ccc(OCC#CCN5CCOCC5)c([N+](=O)[O-])c4)c(Oc4ccc5[nH]ccc5c4)c3)CC2)=C(c2ccc(Cl)cc2)C1 [EXAMPLE 390, 4-(4-{[2-(4-chlorophenyl)-4,4-dimethylcyclohex-1-en-1-yl]methyl}piperazin-1-yl)-2-(1H-indol-5-yloxy)-N-({4-[(4-morpholin-4-ylbut-2-ynyl)oxy]-3-nitrophenyl}sulfonyl)benzamide]",339.6
20,"C#Cc1cc(S(=O)(=O)NC(=O)c2ccc(N3CCN(CC4=C(c5ccc(Cl)cc5)CC(C)(C)CC4)CC3)cc2Oc2cccc3[nH]ccc23)cnc1OCC1CCOCC1 [EXAMPLE 391, 4-(4-{[2-(4-chlorophenyl)-4,4-dimethylcyclohex-1-en-1-yl]methyl}piperazin-1-yl)-N-{[5-ethynyl-6-(tetrahydro-2H-pyran-4-ylmethoxy)pyridin-3-yl]sulfonyl}-2-(1H-indol-4-yloxy)benzamide]",>186.4
